Test results as given in PMC7730452, “Citrullination-Resistant LL-37 Is a Potent Antimicrobial Agent in the Inflammatory Environment High in Arginine Deiminase Activity” (International Journal of Molecular Sciences, 2020).
≈ marks a conversion by molar mass, not a printed value. Where two headings read alike, the source gives them in different places.

Legend:
[1] = cited from earlier work
Text: The slower hydrolysis rate of homoarginine-containing peptides compared with their arginine-containing counterparts depend ...

cathepsin G = cathepsin G (Homo sapiens, UniProt P08311)
Sequence of cathepsin G (P08311 21-255): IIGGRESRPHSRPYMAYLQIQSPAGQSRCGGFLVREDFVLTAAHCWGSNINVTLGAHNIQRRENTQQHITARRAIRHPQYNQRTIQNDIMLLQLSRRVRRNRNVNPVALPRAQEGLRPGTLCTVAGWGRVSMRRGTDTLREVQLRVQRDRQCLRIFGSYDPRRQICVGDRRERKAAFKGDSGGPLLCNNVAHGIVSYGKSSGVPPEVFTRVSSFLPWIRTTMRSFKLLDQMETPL
Protocol: (§1) After incubation samples were immediately frozen at −80 °C. Samples were separated on SDS-PAGE under denaturing condition in 4–16% gels. After separation, the gels underwent colloid Coomassie staining.

V8 protease = V8 protease (Staphylococcus aureus, UniProt P0C1U8); experiment: Degradation by protease, SDS-PAGE; details: 5 μg peptide, 0.05 μg protease, PBS, 25 μL, 37 °C, 1 h and 18 h, Coomassie
Sequence of V8 protease (P0C1U8 69-336): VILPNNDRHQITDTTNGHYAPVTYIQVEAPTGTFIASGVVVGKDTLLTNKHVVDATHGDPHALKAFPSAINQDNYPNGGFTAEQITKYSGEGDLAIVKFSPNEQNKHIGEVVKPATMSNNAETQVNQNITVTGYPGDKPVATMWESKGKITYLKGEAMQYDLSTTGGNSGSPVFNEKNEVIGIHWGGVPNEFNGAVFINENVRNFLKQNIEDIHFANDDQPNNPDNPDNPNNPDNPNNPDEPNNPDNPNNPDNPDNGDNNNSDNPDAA
Protocol: as §1

aureolysin = aureolysin (Staphylococcus aureus, UniProt P81177); experiment: Degradation by protease, SDS-PAGE; details: 5 μg peptide, 0.05 μg protease, PBS, 25 μL, 37 °C, 1 h and 18 h, Coomassie
Sequence of aureolysin (P81177 209-509): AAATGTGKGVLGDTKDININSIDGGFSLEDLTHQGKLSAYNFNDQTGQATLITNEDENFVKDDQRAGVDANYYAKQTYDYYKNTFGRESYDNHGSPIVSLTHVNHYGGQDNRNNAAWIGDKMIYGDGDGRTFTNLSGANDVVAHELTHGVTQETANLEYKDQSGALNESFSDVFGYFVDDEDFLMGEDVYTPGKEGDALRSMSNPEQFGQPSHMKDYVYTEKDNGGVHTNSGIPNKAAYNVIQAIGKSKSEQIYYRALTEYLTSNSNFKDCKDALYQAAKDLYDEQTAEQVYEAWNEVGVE
Protocol: as §1

HaCaT cells = experiment: LDH release cytotoxicity assay; assay type: cell-based, human; details: 24 h, n = 2
Protocol: The cell line of human immortalized keratinocytes (HaCaT) was obtained from American Type Culture Collection (ATCC, Manassas, VA, USA) and cultured in DMEM (Gibco, Life Technologies, Paisley, UK) supplemented with 10% heat-inactivated fetal bovine serum (FBS) and PEST (100 U/mL penicillin and 100 U/mL streptomycin) at 37 °C in humidified 5% CO2 atmosphere. Cells were passaged every 4–5 days. To assess the effect of peptides on the integrity of the plasma membrane, the LDH release assay was performed using the CytoTox96 nonradioactive cytotoxicity assay kit (Promega, Madison, WI, USA) according to the manufacturer’s instructions. Cytotoxicity was calculated with the formula: % cytotoxicity = 100 × (experimental LDH release/maximum LDH release), where maximum LDH release occurs after the addition of lysis solution (Triton X-100). Relative amounts of LDH release were measured (absorbance at 490 nm) using FlexStation 3 Multimode Microplate Reader (Molecular Device, Wokingham, UK). All assays were performed in duplicate.

venous leg ulcers = details: patients with venous leg ulcers; cited from earlier work
Text: Current research is partly focused on peptide-based compounds.

neutrophil elastase = neutrophil elastase (Homo sapiens, UniProt P08246); details: 5 μg peptide, 0.05 μg protease, PBS, 25 μL, 37 °C, 1 h and 18 h; SDS-PAGE, Coomassie
Sequence of neutrophil elastase (P08246 30-267): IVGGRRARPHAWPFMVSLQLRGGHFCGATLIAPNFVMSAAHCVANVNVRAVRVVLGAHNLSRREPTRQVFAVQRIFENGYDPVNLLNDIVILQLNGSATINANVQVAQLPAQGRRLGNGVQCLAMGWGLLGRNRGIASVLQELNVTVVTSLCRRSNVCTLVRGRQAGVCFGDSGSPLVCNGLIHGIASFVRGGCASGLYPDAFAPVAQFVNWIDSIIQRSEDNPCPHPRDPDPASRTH
Protocol: as §1

E. coli = assay type: cell-based, Escherichia coli ATCC 25922
Protocol: (§2) Escherichia coli ATCC 25922 and Pseudomonas aeruginosa (clinical isolate) were inoculated from stocks into 20 mL LB Broth Lennox, while Staphylococcus aureus Δaur (8325-4 Δaur) into 20 mL TSB and grown overnight at 37 °C under constant rotation (180 rpm) to a mid-logarithmic growth phase. Then they were centrifuged at 5000× g for 5 min, washed in PBS, and resuspended in PBS to the desired OD (600 nm).
(§3) Mueller-Hinton broth (MHB, Sigma-Aldrich) was used as the working medium for all bacterial strains. Briefly, inoculum was prepared from freshly grown cultures of bacteria being at their exponential phase of growth. Each well of 96-well plates containing 100 μL of serially diluted peptides in PBS at desired concentration was inoculated with 100 μL of 1 × 10^5 (CFU) mL^−1 of bacterial suspensions. Then, plates were incubated overnight at 37 °C and absorbance was read at 590 nm in a Flex Station 3 multi-mode microplate reader (Molecular Devices). An absorbance reading in wells without a peptide representing unrestrained bacterial growth was taken as positive control (100% bacterial survival). Readings in wells without bacteria were taken as negative controls. All measurements were run in triplicates.

P. aeruginosa = assay type: cell-based, Pseudomonas aeruginosa (clinical isolate)
Protocol: as §2, §3

recombinant human PAD4 = recombinant human PAD4 (Homo sapiens, UniProt Q9UM07)
Sequence of recombinant human PAD4 (Q9UM07 whole entry): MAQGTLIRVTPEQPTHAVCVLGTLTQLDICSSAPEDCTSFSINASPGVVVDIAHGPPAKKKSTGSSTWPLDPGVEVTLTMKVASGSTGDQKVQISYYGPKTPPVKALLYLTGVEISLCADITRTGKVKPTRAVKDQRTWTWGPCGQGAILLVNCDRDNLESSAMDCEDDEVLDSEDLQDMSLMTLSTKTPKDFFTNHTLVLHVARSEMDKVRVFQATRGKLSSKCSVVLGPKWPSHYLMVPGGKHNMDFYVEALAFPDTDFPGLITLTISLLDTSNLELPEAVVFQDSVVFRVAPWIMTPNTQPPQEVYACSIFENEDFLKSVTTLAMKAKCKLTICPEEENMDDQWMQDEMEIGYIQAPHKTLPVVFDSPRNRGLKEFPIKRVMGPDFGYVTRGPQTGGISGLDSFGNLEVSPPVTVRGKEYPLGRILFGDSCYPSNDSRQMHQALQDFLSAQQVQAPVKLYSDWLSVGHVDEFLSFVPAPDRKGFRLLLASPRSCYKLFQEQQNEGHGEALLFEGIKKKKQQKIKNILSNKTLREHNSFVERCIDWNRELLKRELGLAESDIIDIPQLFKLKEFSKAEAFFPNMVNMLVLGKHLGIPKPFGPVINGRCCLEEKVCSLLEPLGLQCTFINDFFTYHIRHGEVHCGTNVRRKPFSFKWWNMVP
Protocol: PAD4 activity was determined on N-α-benzoyl-L-arginine ethyl ester hydrochloride (BAEE) substrate with colorimetric assay [33].
Citrullination was terminated by snap-freezing the samples.
Reaction was terminated by addition of TFA (final concentration 0.1%) (Sigma) and samples were analyzed via HPLC. Separation was achieved on a reverse-phase column Aeris XB-C18, 3.6 μm, 4.6/150 (Phenomenex) connected to ÄKTAmicro (GE Healthcare). Peptides were eluted in the gradient of Phase A (0.1% TFA in water) and Phase B (80% acetonitrile, 0.08% TFA in water) and monitored at 215 nm.

Row | Structure (SMILES) | Degradation in NETs [1] | Degradation by cathepsin G (cathepsin G; 5 μg peptide, 0.5 μg protease, PBS, 25 μL, 37 °C, 1 h and 18 h, SDS-PAGE, Coomassie) | Degradation by V8 protease (V8 protease) | Degradation by aureolysin (aureolysin) | Toxicity, LDH release (HaCaT cells; peptide 10 μg/mL) | Toxicity, LDH release (HaCaT cells; peptide 25 μg/mL) | Toxicity, LDH release (HaCaT cells; peptide 75 μg/mL) | Safety and tolerability (venous leg ulcers) | Degradation by neutrophil elastase (neutrophil elastase) | Degradation by cathepsin G (cathepsin G) | MIC (minimal inhibitory concentration) (E. coli) [µg/mL] | MIC (minimal inhibitory concentration) (P. aeruginosa) [µg/mL] | Modification (citrullination) by PAD4 (recombinant human PAD4)
1 | CC[C@H](C)[C@H](NC(=O)[C@H](CCCCN)NC(=O)[C@H](CCC(=O)O)NC(=O)[C@H](CCCCN)NC(=O)[C@H](CO)NC(=O)[C@H](CCCCN)NC(=O)[C@H](CCCNC(=N)N)NC(=O)[C@H](Cc1ccccc1)NC(=O)[C@H](Cc1ccccc1)NC(=O)[C@H](CC(=O)O)NC(=O)CNC(=O)[C@H](CC(C)C)NC(=O)[C@@H](N)CC(C)C)C(=O)NCC(=O)N[C@@H](CCCCN)C(=O)N[C@@H](CCC(=O)O)C(=O)N[C@@H](Cc1ccccc1)C(=O)N[C@@H](CCCCN)C(=O)N[C@@H](CCCNC(=N)N)C(=O)N[C@H](C(=O)N[C@H](C(=O)N[C@@H](CCC(N)=O)C(=O)N[C@@H](CCCNC(=N)N)C(=O)N[C@H](C(=O)N[C@@H](CCCCN)C(=O)N[C@@H](CC(=O)O)C(=O)N[C@@H](Cc1ccccc1)C(=O)N[C@@H](CC(C)C)C(=O)N[C@@H](CCCNC(=N)N)C(=O)N[C@@H](CC(N)=O)C(=O)N[C@@H](CC(C)C)C(=O)N[C@H](C(=O)N1CCC[C@H]1C(=O)N[C@@H](CCCNC(=N)N)C(=O)N[C@H](C(=O)N[C@@H](CCC(=O)O)C(=O)N[C@@H](CO)C(=O)O)[C@@H](C)O)C(C)C)[C@@H](C)CC)C(C)C)[C@@H](C)CC [LL-37] | gradually degraded | did not differ | similarly sensitive | similarly sensitive | did not compromise the membrane permeability | did not compromise the membrane permeability | low, but still significant, release of LDH | no safety or tolerability concerns were noted | – | – | – | – | –
2 | CC[C@H](C)[C@H](NC(=O)[C@H](CCCCN)NC(=O)[C@H](CCC(=O)O)NC(=O)[C@H](CCCCN)NC(=O)[C@H](CO)NC(=O)[C@H](CCCCN)NC(=O)[C@H](CCCCNC(=N)N)NC(=O)[C@H](Cc1ccccc1)NC(=O)[C@H](Cc1ccccc1)NC(=O)[C@H](CC(=O)O)NC(=O)CNC(=O)[C@H](CC(C)C)NC(=O)[C@@H](N)CC(C)C)C(=O)NCC(=O)N[C@@H](CCCCN)C(=O)N[C@@H](CCC(=O)O)C(=O)N[C@@H](Cc1ccccc1)C(=O)N[C@@H](CCCCN)C(=O)N[C@@H](CCCCNC(=N)N)C(=O)N[C@H](C(=O)N[C@H](C(=O)N[C@@H](CCC(N)=O)C(=O)N[C@@H](CCCCNC(=N)N)C(=O)N[C@H](C(=O)N[C@@H](CCCCN)C(=O)N[C@@H](CC(=O)O)C(=O)N[C@@H](Cc1ccccc1)C(=O)N[C@@H](CC(C)C)C(=O)N[C@@H](CCCCNC(=N)N)C(=O)N[C@@H](CC(N)=O)C(=O)N[C@@H](CC(C)C)C(=O)N[C@H](C(=O)N1CCC[C@H]1C(=O)N[C@@H](CCCCNC(=N)N)C(=O)N[C@H](C(=O)N[C@@H](CCC(=O)O)C(=O)N[C@@H](CO)C(=O)O)[C@@H](C)O)C(C)C)[C@@H](C)CC)C(C)C)[C@@H](C)CC [hArg-LL-37] | – | – | similarly sensitive | similarly sensitive | – | – | – | – | degraded more rapidly by neutrophil elastase than LL-37 | did not differ | 50 (≈ 11 µM) | 50 (≈ 11 µM) | did not evidently modify
